Results: patent US20090042783A1, “APO E ANALOGS AND METHODS FOR THEIR USE” (priority 2004, published 2009)
Read-outs that look alike come from different tables or passages of the source. Marks after values point to notes of the source that are not given here. Non-standard residues stand in square brackets, D forms with d. Aib = CC(C)(N)C(=O)O

What was measured:
BV2 microglial cells = test system: BV2 microglial cells
Procedure: For suppression of inflammation profiling, each peptide analog was tested at a final concentration of 0.1, […], 1, 3, 5, 10 and 25 μM in an LPS induced BV2 microglial cell release of NO and/or TNFα. […] The modification was a biotin label on the apoE peptide (biotin-[…]-amide) which allows detection with ^125I-streptavidin (ISA, Amersham).
In overview, BV-2 cells are plated in 96 well plates in complete media and then the media is replaced the next day with serum free media or reduced serum (1%) media. […] Each concentration of peptide (standard initial concentrations are 0.1, 0.5, 1, 3, 10 and 25 μM) is added to at least 6 wells of cells (e.g. 6 wells get 0.1 μM peptide, 6 wells get 0.5 μM peptide, etc.) and data are averaged from all 6 wells. […] (2001). Cell viability is also measured with an MTT assay (Laskowitz et al. 2001).

[1] = test system: BV2 murine microglial cells
Procedure: For Applicants preliminary work, the two most common PTDs, TAT and penetratin, were used.
Cell Culture: BV-2, a well-characterized murine microglial cell line (Bochinni, 1992), is cultured in high glucose content DMEM supplemented with 1% penicillin/streptomycin, 10% fetal calf serum, 1% nonessential amino acids, and 1% sodium pyruvate. Cells are grown to confluency; trypsinized; spun down; resuspended in serum-free OptiMEM containing 1% N2 supplement, 1% penicillin/streptomycin, 1% nonessential amino acids, and 1% sodium pyruvate; and plated at a concentration of 20,000 cells/well to remove any nonadherent cells and serum.
Supernatant is collected 24 and/or 48 h after LPS stimulation and assayed for nitrite.
Quantification of Nitric Oxide (NO): Accumulation of nitrite (stable end product of NO production) in the medium is measured by colometric Griess reagent system (Promega); the absorbance is determined at 540 nm.
Cell Viability Assay: Cell viability is measured using a nonradioactive cell viability assay (cell titer 96 AQ, Promega). The assay measures the bioreduction of MTS (3-(4,5-dimethylthiazole-2-)-5-(3-carboxymethoxyphenyl)-2-(4-sulfophenyl)-2H-tetrazolium by viable cells into formazan. The absorbance of the calorimetric assay is measured at λ 490 nm. Viability is assessed and used to normalize the nitrite data.

[2] = test system: mice with traumatic brain injury; assay: Closed head injury model of traumatic brain injury (rotorod, Morris Water Maze); settings: for In vivo Therapeutic window time expanded?: mouse
Procedure: C57Bl/6J male mice (The Jackson Laboratory, ME), 12-16 weeks of age and weighing 24-32 g, are used for all experiments. Anesthesia is first induced with isoflurane in 30% O2/balance N2. The trachea is intubated and the lungs mechanically ventilated with 1.6% isoflurane in 30% O2/balance N2. Temperature is monitored with a rectal probe and maintained at 36.5° C. with a heat lamp. The right internal jugular vein is cannulated with silicone catheter. […] Intubated animals are then placed prone on a molded acrylic cast (FIG. 6A). […] The scalp is incised and the skull exposed. A concave 3 mm metallic disc is secured to the skull surface (with the concave surface in juxtaposition to the skull) by an adhesive. […] The disc is placed directly midline just caudal to bregma (FIG. 6B). […] The mice are positioned in a stereotactic frame. Although the stereotactactic frame helps to stabilize the animal and exactly calibrate the vertical displacement on impact (3 mm), ear bars are not used due to a much higher rate of skull fracture (or brainstem injury if the head rotates around the axis of the ear bars during impact). The piston is discharged at 6.8±0.2 m/s so as to impact the skull in the acrylic mold to move a maximum of approximately 3 mm (FIG. 6C). Inspired isoflurane is decreased to 0.7% immediately after impact. The scalp was infiltrated with lidocaine and closed with suture. Ophthalmic ointment was applied to the eyes for protection. The incidence of skull fracture is low (approximately 10%), as the metal disk helps to diffuse the impact, and the absence of ear bar fixation allows for displacement of the entire head. Mice were excluded if a depressed skull fracture was observed (incidence of approximately 10%). The animals are allowed to recover spontaneous ventilation then extubated. […] In these mice, arterial blood pressure, blood gas and glucose measurement at baseline, immediately after injury, and 15 minutes after injury are monitored during the recovery period.
Briefly, baseline performance on rotorod is established before the mice are intubated, the skin over the scalp reflected and a controlled cortical impact from a pneumatic impactor given on the midline. The skin is closed with surgical clips and the animals are constantly monitored until awake from anesthesia and then hourly for the next 4 hours. […] Performance on rotorod is tested at 24 hours post impaction and then every day for 5 days and data is presented as described. Groups of 12 mice are used for each compound at 0.5×MTD. […] Novel peptides and non-peptide analogs are also given by tail vein injection.
Daily Rotarod (RR) testing was used to assess short term motor and cerebellar deficit following head injury (Hamm et al., 1994). Mice were held by their tails and placed on the RR facing the wall by using gentle swinging motion while running in a constant speed mode.

peritoneal macrophages = assay: Peritoneal macrophage production of NO, TNFα and IL-6 induced by MOG or LPS/IFN-γ; format: cell-based, mouse
Procedure: For this purpose, three mice with clinical scores of 0 and three with clinical scores of 4 at 30 dpi (day post-immunization) were used for preparation of peritoneal macrophage cultures. Macrophages were collected after peritoneal lavage with 3 ml heparin (10 U/ml)-containing PBS and then seeded to 96-well microplates at a density of 1×10^5 cells/well in Dulbecco's MEM containing 10% fetal bovine serum, 2 mM L-glutamine serum, 1% HEPES and 100 U/ml penicillin and 100 μg/ml streptomycin, 37° C. in a humidified incubator with 5% CO2. 24 h later, the serum-containing medium was removed and cells were washed once with serum-free medium. To examine the differentiated response of macrophage to immune stimulators, macrophages obtained from mice with clinical scores of 0 or 4 were exposed to serial concentrations of IFN-γ/LPS or MOG35-55 peptide. […] Media were collected at 45 h or 72 h, and analyzed by ELISA for […] and IL-6 or for nitric oxide (NO) as detailed below.
As the stable end product of nitric oxide release, nitrite levels in conditioned media were determined by injecting 50 μl media sample into a Sievers 280 NOA analyzer (Boulder, Colo., USA). Total protein (μg/well) was measured using the BCA method (Pierce, Rockford, Ill., USA) according to manufacturer's instructions with BSA as standard. BCA values were measured using a Molecular Devices Thermomax Microplate Reader (Menlo Park, Calif., USA) at OD562. Nitric oxide levels ere expressed as μM NO2—/mg protein.
For cytokine assays, supernatants were collected 45 h after […]/LPS or MOG treatments and quantitative ELISAs using selected pairs of monoclonal antibodies (as recommended by the manufacturer Biosource) were performed to quantify the cytokines, TNF-α and IL-6. For TNF-α ELISA, 96-well ELISA plates were pre-coated with rabbit anti-mouse polyclonal to TNF-α as capture antibodies for 18 h at 2-8° C. and then blocked for 2 h at room temperature. The wells were incubated with samples or mouse TNF-α standards. Following incubation for 2 h at room temperature, the wells were washed, after which hamster anti-mouse TNF-α biotinylated secondary antibody and horseradish peroxidase conjugate were added. Tetramethylbenzidine (TMB) solution was then added, and peroxidase-catalyzed color change was stopped by acidification with 2 NH2SO4. The plates were scanned at wavelength 450 nm and the absorbance were measured. The results are expressed as the mean concentration (pg/ml) ±SEM.
For IL-6 ELISA, rat anti-mouse monoclonal to IL-6 was used as capture antibody, and biotinylated rat anti-mouse monoclonal to IL-6 as detection antibody. The rest of procedure is identical to that of TNF-α ELISA.

[3] = test system: mice infected with C. rodentium; assay: C. rodentium colitis; format: in vivo; settings: for Colon wt (% Total Body wt) / Histology Score / Body wt (% Total Body wt): WT mice, 10 days; for Body wt (% Total Body wt): 0.1% BEC or 2.5% DFMO
Text: C. rodentium colitis: Of the two existing mouse models (Gobert A P et al., 2004; Cheng Y. et al., 2003), the C. rodentium model was selected because it produces a Th1-predominant mucosal inflammation that has histologic changes similar to human IBD (Higgins L M et al., 1999). In this model, mice are infected by oral gavage with C. rodentium (Gobert A P et al., 2004), a gram negative pathogenic bacterium that is the rodent equivalent of enteropathogenic E. coli that causes diarrhea in humans.
Since arginase I and iNOS were both abundantly expressed in the colitis tissues and L-Arg was completely metabolized, we investigated the effect of administration of 1% L-Arg in the drinking water. In wild type (WT) mice, C. rodentium colitis induced a high level of mortality that began on day 9 post-infection (FIG. 31A). In WT animals treated with L-Arg, mortality was inhibited by 42% and 62% compared to mice receiving water alone, after 12 and 14 days of infection, respectively (FIG. 31A). By Cox regression analysis, WT mice treated with L-Arg had only a 31% hazard of death compared with mice receiving water alone (p<0.0009). In iNOS^−/− mice, no deaths were observed, with or without L-Arg (FIG. 31A). […] Note that the weight loss of WT mice is underestimated, since only the weights of animals still alive could be included. […] There was an additive effect of iNOS deletion and L-Arg administration, with a 68% decrease in colon weight. Neither iNOS deletion nor L-Arg treatment affected colon weight in uninfected control mice. Importantly, these changes were closely paralleled by changes in colon histology (FIG. 32).
In uninfected control mice, BEC or DFMO had no effect (Table I). […] In fact, experiments had to be terminated early at 10 days post-infection, because of deaths and severe disease at this point.

In the case of “apoE 136-149: truncated apoE peptide, residues 136-149 (RLASHLRKLRKRLL; UniProt P02649 154-167, looked up, fragment)”, the “Fold less potent than apoE 130-150” value (BV2 microglial cells) is reported as 8 fold.
“ApoE 139-149: truncated apoE peptide, residues 139-149 (SHLRKLRKRLL; UniProt P02649 157-167, looked up, fragment)” was tested, and the “Activity at 25 μM in suppression of NO / TNFα release” value (“Activity … of NO / TNFα release” below) (BV2 microglial cells) was “failed to show activity”.
In the case of “apoE 130-147: truncated apoE peptide, residues 130-147 (TEELRVRLASHLRKLRKR; UniProt P02649 148-165, looked up, fragment)”, the “Activity … of NO / TNFα release” value (BV2 microglial cells) is reported as “failed to show activity”.
Work on “Ac-RRRRRRRRLRVRLASHLRKLRKRLL-NH2 (N-terminus and C-terminus assumed) [polyArg (8R)]” yielded an IC50 [1] of 4 µM and an IC50 ([1]; read-out: IC50 TNFα, in vitro) of 4.2 µM.
For Ac-ASHLRKLRKRLL-NH2 [apoE 138-149], the “Activity … of NO / TNFα release” value (BV2 microglial cells) was “failed to show activity”.
In the case of “apoE 130-148: truncated apoE peptide, residues 130-148 (TEELRVRLASHLRKLRKRL; UniProt P02649 148-166, looked up, fragment)”, the “Activity … of NO / TNFα release” value (BV2 microglial cells) is reported as “failed to show activity”.
“Ac-RGGRLAYLRRRWAVLGRLRVRLASHLRKLRKRLL-NH2 (N-terminus and C-terminus assumed) [SynB5]” was tested, and the IC50 [1] was 3.2 µM, the IC50 ([1]; read-out: IC50 TNFα, in vitro) was 4.2 µM and the “In vivo Therapeutic window time expanded?” value [2] was “No; Tested at 6 X”.
“apoE 137-149: truncated apoE peptide, residues 137-149 (LASHLRKLRKRLL; UniProt P02649 155-167, looked up, fragment)” was tested, and the “Activity … of NO / TNFα release” value (BV2 microglial cells) was “failed to show activity”.
“RQIKIWFQNRRMKWKK (Protein transduction domain conjugate Antp) [antennapedia prefix peptide, portion of antennapedia that serves as a prefix to COG133, reference compound]” was tested, and the “Inhibition of cytokine production induced by MOG or LPS/IFN-γ” value (peritoneal macrophages) was “showed no activity”.
In the case of NCCCC(N)(C(=O)O)C(F)F (centres unmarked) [DFMO, -difluoromethylornithine], the “Colon wt (% Total Body wt)” value ([3]; C. rodentium) is reported as 1.35 ± 0.12^b,d % Total Body wt, the “Histology Score” value ([3]; C. rodentium) is reported as 9.54 ± 0.68^b,d and the “Body wt (% Total Body wt)” value ([3]; C. rodentium) is reported as 78.6 ± 0.4^b,c % Total Body wt. The “Colon wt (% Total Body wt)” value ([3]; PBS (uninfected)) was 0.61 ± 0.07 % Total Body wt, the “Histology Score” value ([3]; PBS (uninfected)) was 0.75 ± 0.25 and the “Body wt (% Total Body wt)” value ([3]; PBS (uninfected)) was 101.3 ± 2.6 % Total Body wt. The “Survival of C. rodentium-infected mice” value ([3]; in the drinking water) was “significant loss of survival” and the “Effect in uninfected control mice” value ([3]; mouse, in vivo) was “had no effect”.
“ApoE 135-149: truncated apoE peptide, residues 135-149 (VRLASHLRKLRKRLL; UniProt P02649 153-167, looked up, fragment)” was tested, and the “Fold less potent than apoE 130-150” value (BV2 microglial cells) was 5 fold.
Compound LRVRLASHLRKLRKRLA [L149A] has an EC50 (BV2 microglial cells; read-out: Structure activity in the COG133 peptide from single amino acid replacements, binding and/or suppression of NO or TNFα release, compared with 3.5 μM EC50 of COG133) of over 3.5 µM.
For “apoE 134-149: truncated apoE peptide, residues 134-149 (RVRLASHLRKLRKRLL; UniProt P02649 152-167, looked up, fragment)”, the “Fold less potent than apoE 130-150” value (BV2 microglial cells) was 2.5 fold.
With “Ac-RRLSYSRRRFLRVRLASHLRKLRKRLL-NH2 (N-terminus and C-terminus assumed) [SynB3]” the IC50 [1] was 5.9 µM, the IC50 ([1]; read-out: IC50 TNFα, in vitro) was 5.1 µM and the “Rotorod latency, single tail vein injection 2 hours post TBI” value ([2]; 2 hours post traumatic brain injury) was “significantly improves outcome from head trauma”. The “In vivo Therapeutic window time expanded?” value [2] was “Yes; tested at 4 X”.
CSCC[C@H](NC(=O)[C@H](CCCNC(=N)N)NC(=O)[C@H](CCCNC(=N)N)NC(C)=O)C(=O)N[C@@H](CCCCN)C(=O)N[C@@H](Cc1c[nH]c2ccccc12)C(=O)N[C@@H](CCCCN)C(=O)N[C@@H](CCCCN)C(=O)N[C@@H](CC(C)C)C(=O)N[C@@H](CCCNC(=N)N)C(=O)N[C@H](C(=O)N[C@@H](CCCNC(=N)N)C(=O)N[C@@H](CC(C)C)C(=O)N[C@@H](C)C(=O)N[C@@H](CO)C(=O)N[C@@H](Cc1c[nH]cn1)C(=O)N[C@@H](CC(C)C)C(=O)N[C@@H](CCCNC(=N)N)C(=O)N[C@@H](CCCCN)C(=O)N[C@@H](CC(C)C)C(=O)N[C@@H](CCCNC(=N)N)C(=O)N[C@@H](CCCCN)C(=O)N[C@@H](CCCNC(=N)N)C(=O)N[C@@H](CC(C)C)C(=O)N[C@@H](CC(C)C)C(N)=O)C(C)C [antp (52-58)] was tested, and the IC50 [1] was 11 µM.
In the case of “Ac-ASHLRKL-Aib-KRLL-NH2 (Ac-ASHLRKL[Aib]KRLL-NH2; SMILES CC(=O)N[C@@H](C)C(=O)N[C@@H](CO)C(=O)N[C@@H](Cc1c[nH]cn1)C(=O)N[C@@H](CC(C)C)C(=O)N[C@@H](CCCNC(=N)N)C(=O)N[C@@H](CCCCN)C(=O)N[C@@H](CC(C)C)C(=O)NC(C)(C)C(=O)N[C@@H](CCCCN)C(=O)N[C@@H](CCCNC(=N)N)C(=O)N[C@@H](CC(C)C)C(=O)N[C@@H](CC(C)C)C(N)=O) [COG432]”, the “Rotorod performance (100% is performance prior to TBI)” value ([2]; 4 mg/kg, started 2 hours post TBI, day 5 post TBI) is reported as “about 80%”.
